Patent US20240132515A1, “TOXIN MOLECULE SUITABLE FOR ANTIBODY-DRUG CONJUGATE” (MINGHUI PHARMACEUTICAL (HANGZHOU) LIMITED, priority 2021, published 2024)

The molecules below were run on KPL-4 Cells (assay: Cell Proliferation Inhibition Test (CellTiter-Glo, 72 h)). Conditions: KPL4, 72 h incubation, CellTiter-Glo luminescence.
Type: cell-based
Procedure: Cell Proliferation Inhibition Test KPL-4 Cells in the logarithmic phase of growth were collected and re-suspended with fresh RPMI1640 complete cell culture medium, and adjusted to 2×10^4 cells/mL after cell counting. Cells were seeded into 96-well cell culture plates at 100 μL/well, and placed in a CO2 incubator (37° C., 5% CO2) overnight. In the next day, one of the cell culture plates were taken out, balanced to room temperature, and CellTiter-Glo reagent (Promega, USA), which was pre-balanced to room temperature and evenly mixed, was added into the plate at 100 μl. The plate was kept in dark for 30 min, and then luminescence value was read with a microplate reader (denoted as G0 value). The other cell culture plates were taken out and added with different concentrations of test compounds or DMSO (final concentration 0.5%) in corresponding wells. After incubated for 72 h in a CO2 incubator, the cell culture plates were balanced to room temperature and tested for cell viabilities using CellTiter-Glo reagent as described above (denoted as G3 value).
The cell proliferation rates were calculated using the following formula: Cell proliferation rate (%)=(mean of G3compound−mean of G0)/(mean of G3DMSO−mean of G0)×100.

Row | SMILES | GI50 [nM]
1 | CC[C@@]1(O)C(=O)OCc2c1cc1n(c2=S)Cc2c-1nc1cc(F)c(C)c3c1c2[C@@H](NC(C)=O)CC3 [Example 3] | 2.59
2 | CC[C@@]1(O)C(=O)OCc2c1cc1n(c2=S)Cc2c-1nc1cc(F)c(C)c3c1c2[C@H](NC(=O)C(O)c1ccccc1)CC3 (stereo partly shown) [Example 6] | 5.31
3 | CC[C@@]1(O)C(=O)OCc2c1cc1n(c2=S)Cc2c-1nc1cc(F)c(C)c3c1c2[C@@H](NC(=O)C1(O)CC1)CC3 [Example 17] | 1.83
4 | CC[C@@]1(O)C(=O)OCc2c1cc1n(c2=S)Cc2c-1nc1cc(F)c(C)c3c1c2[C@H](NC(=O)C(O)Cc1ccccc1)CC3 (stereo partly shown) [Example 8] | 4.95
5 | CC[C@@]1(O)C(=O)OCc2c1cc1n(c2=S)Cc2c-1nc1cc(F)c(C)c3c1c2[C@@H](NC(=O)CN)CC3 [Example 13] | 7.54
6 | CC[C@@]1(O)C(=O)OCc2c1cc1n(c2=S)Cc2c-1nc1cc(F)c(C)c3c1c2[C@H](NC(=O)C1(O)CC1)CC3 [Example 18] | 3.89
7 | CC[C@@]1(O)C(=O)OCc2c1cc1n(c2=S)Cc2c-1nc1cc(F)c(C)c3c1c2[C@H](NC(=O)C(O)CC1CC1)CC3 (stereo partly shown) [Example 20] | 4.79
8 | CC[C@@]1(O)C(=O)OCc2c1cc1n(c2=S)Cc2c-1nc1cc(F)c(C)c3c1c2[C@H](NC(=O)C(C)(C)O)CC3 [Example 10] | 3.54
9 | CC[C@@]1(O)C(=O)OCc2c1cc1n(c2=S)Cc2c-1nc1cc(F)c(C)c3c1c2[C@@H](NC(=O)C(O)Cc1ccccc1)CC3 (stereo partly shown) [Example 7] | 5.76
10 | CC[C@@]1(O)C(=O)OCc2c1cc1n(c2=S)Cc2c-1nc1cc(F)c(C)c3c1c2[C@@H](NC(=O)C(O)c1ccccc1)CC3 (stereo partly shown) [Example 5] | 1.79
11 | CC[C@@]1(O)C(=O)OCc2c1cc1n(c2=S)Cc2c-1nc1cc(F)c(C)c3c1c2[C@H](NC(C)=O)CC3 [Example 4] | 1.55
12 | CC[C@@]1(O)C(=O)OCc2c1cc1n(c2=S)Cc2c-1nc1cc(F)c(C)c3c1c2[C@H](NC(=O)C(O)C1CC1)CC3 (stereo partly shown) [Example 21] | 34.7
13 | CC[C@@]1(O)C(=O)OCc2c1cc1n(c2=S)Cc2c-1nc1cc(F)c(C)c3c1c2[C@H](NC(=O)CN)CC3 [Example 14] | 6.14
14 | CC[C@@]1(O)C(=O)OCc2c1cc1n(c2=S)Cc2c-1nc1cc(F)c(C)c3c1c2[C@@H](NC(=O)C(O)CC1CC1)CC3 (stereo partly shown) [Example 19] | 2.9
15 | CC[C@@]1(O)C(=O)OCc2c1cc1n(c2=O)Cc2c-1nc1cc(F)c(C)c3c1c2[C@@H](NC(=O)CO)CC3 [DXd, reference compound] | 72
16 | CC[C@@]1(O)C(=O)OCc2c1cc1n(c2=S)Cc2c-1nc1cc(F)c(C)c3c1c2[C@@H](NC(=O)C(C)(C)O)CC3 [Example 9] | 12.1
